Test results from US9670197B2, “Small molecule modifiers of the Hec1-Nek2 interaction in G2/M” (The Regents of the University of California, priority 2013, dated 2017).

Key:
[1] = test system: HS27; test: Growth inhibition, normal skin fibroblast HS27; assay type: cell-based; conditions: for IC50: Homo sapiens, Table 2, Fibroblast, HS27, read-out: cell growth suppression; for growth inhibitory effect on non-tumorgenic fibroblast cells: data not shown
Method: (§1) Cell lines and establishment of stable cell lines. Human breast cancer cell lines MDA-MB-231 and MDA-MB-468, osteosarcoma line U20S, cervical adenocarcinoma line HeLa, and normal skin fibroblast Hs27 were maintained in DMEM medium (Invitrogen, Grand Island, N.Y.) supplemented 10% fetal bovine serum (FBS) and 1% penicillin-streptomycin. The leukemia cell line K562 and glioblastoma cell line T98G were grown in RPMI 1640 supplemented 10% FBS and 1% penicillin-streptomycin. Normal mammary gland epithelial cell line MCF10A was cultured in DMEM/F12 (50:50) plus 5% horse serum, 0.1 μg/mL cholera toxin, 10 μg/mL insulin, 0.5 μg/mL hydrocortisone, and 20 ng/mL epidermal growth factor. To establish MDA-MB-468 cells that stably expressed each individual GFP-Hec1 deletion construct described above, cells were infected with retrovirus expressing GFP-Hec1 WT, GFP-Hec1 W395A and GFP-Hec1 WLK/AAA, and were selected with 2 μg/ml puromycin.

[2] = test system: K562; test: Cancer cell growth inhibition, K562 leukemia; assay type: cell-based; conditions: Homo sapiens, Table 2, Leukemia, read-out: cancer cell growth suppression
Method: as §1

[3] = target: T1, Nek2 (Homo sapiens, UniProt P51955); test: Biotin-conjugated INH pull-down, Nek2; assay type: binding
T1 construct: endogenous in cells; host or cells: HeLa
T1 sequence (P51955 1-445): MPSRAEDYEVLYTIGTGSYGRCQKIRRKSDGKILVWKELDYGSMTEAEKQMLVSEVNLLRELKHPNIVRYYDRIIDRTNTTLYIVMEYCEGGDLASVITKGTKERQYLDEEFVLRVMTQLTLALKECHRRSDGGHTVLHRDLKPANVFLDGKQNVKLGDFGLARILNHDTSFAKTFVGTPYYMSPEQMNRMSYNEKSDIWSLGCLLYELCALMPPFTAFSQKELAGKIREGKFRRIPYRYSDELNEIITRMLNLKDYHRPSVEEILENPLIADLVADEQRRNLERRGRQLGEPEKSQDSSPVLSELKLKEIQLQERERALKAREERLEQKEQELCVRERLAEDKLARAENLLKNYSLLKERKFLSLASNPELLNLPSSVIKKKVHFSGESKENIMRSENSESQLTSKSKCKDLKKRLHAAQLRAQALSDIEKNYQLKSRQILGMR

[4] = test system: MB468; test: Cancer cell growth inhibition, MB468 (MDA-MB-468); assay type: cell-based; conditions: Homo sapiens, Table 2, Breast adenocarcinoma, read-out: cancer cell growth suppression
[5] = test system: HeLa; test: Cancer cell growth inhibition, HeLa; assay type: cell-based; conditions: Homo sapiens; Table 2, Cervical, HeLa; read-out: cancer cell growth suppression
Method: as §1

[6] = test system: Nek2; test: Nek2 protein level in treated HeLa cells, western blot; assay type: cell-based; conditions: dose series
Method: (§2) INH-induced Nek2 degradation; INH-inhibition of Hec1 phosphorylation by Nek2. […] To evaluate whether INH treatment affected cell cycle profile or Nek2 mRNA level, we performed FACS and real-time PCR analysis.
(§3) Protein extraction and western blot analysis. The protein extractions and western blot analyses of Examples 4-6 were conducted as follows. Cell extracts were prepared and equal amounts of protein were separated by SDS-PAGE (10% w/v gel) followed by electrophoretic transfer to PVDF membranes (Millipore, Billerica, Mass.). After blocking with 5% w/v powdered non-fat milk, the membrane was incubated with different antibodies for overnight at 4° C. and treated for 1 hr with horseradish peroxidase-conjugated goat anti-mouse IgG and goat anti-rabbit IgG antibodies (GeneTex, Irvine, Calif.). ECL detection of the horseradish peroxidase reaction was performed according to the manufacturer's instructions (Millipore, Billerica, Mass.). Protein signal was measured on a LAS 4000 mini Imaging System (Fujifilm, Valhalla, N.Y.).

[7] = target: T2, Hec1 (Homo sapiens, UniProt O14777); test: Hec1 protein level in treated HeLa cells, western blot; assay type: cell-based; conditions: 1 μM, time course
T2 construct: expressed in transfected cells; host or cells: HeLa cells (extracts)
T2 sequence (O14777 1-642): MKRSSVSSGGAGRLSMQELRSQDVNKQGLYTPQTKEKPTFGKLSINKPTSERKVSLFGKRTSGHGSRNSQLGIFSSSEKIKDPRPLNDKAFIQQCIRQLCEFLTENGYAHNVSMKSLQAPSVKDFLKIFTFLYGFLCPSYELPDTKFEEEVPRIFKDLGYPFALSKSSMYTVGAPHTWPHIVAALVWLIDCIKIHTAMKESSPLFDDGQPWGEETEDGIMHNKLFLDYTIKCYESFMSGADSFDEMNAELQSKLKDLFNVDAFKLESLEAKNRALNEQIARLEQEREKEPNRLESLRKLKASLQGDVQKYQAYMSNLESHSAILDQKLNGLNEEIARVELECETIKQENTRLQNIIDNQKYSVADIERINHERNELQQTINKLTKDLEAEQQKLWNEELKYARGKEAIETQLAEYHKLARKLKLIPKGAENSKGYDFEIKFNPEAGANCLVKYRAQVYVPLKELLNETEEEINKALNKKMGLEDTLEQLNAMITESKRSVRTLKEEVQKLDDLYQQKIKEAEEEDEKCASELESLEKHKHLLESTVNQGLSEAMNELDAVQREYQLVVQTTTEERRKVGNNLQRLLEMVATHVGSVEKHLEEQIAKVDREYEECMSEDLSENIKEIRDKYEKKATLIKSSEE
Method: as §2, §3

[8] = test system: MDA-MB-231; test: Cancer cell growth inhibition, MDA-MB-231; assay type: cell-based; conditions: Homo sapiens, Table 2, Breast adenocarcinoma, read-out: cancer cell growth suppression
Method: as §1

| SMILES | IC50 [1] [µM] | growth inhibitory effect on non-tumorgenic fibroblast cells [1] | IC50 [2] [nM] | interaction with Nek2 in pull-down [3] | IC50 [4] [nM] | IC50 [5] [nM] | Nek2 degradation, dose dependence [6] | change in Hec1 protein level [7] | IC50 [8] [nM] |
| --- | --- | --- | --- | --- | --- | --- | --- | --- | --- |
| Cc1cc(C)c(-c2csc(C(=O)c3ccncc3)n2)c(C)c1 [INH41, (4-mesitylthiazol-2-yl)(pyridin-4-yl)methanone] | 62 | Neither INH41 nor INH154 had significant growth inhibitory effects | 620 | Nek2 does not interact | 690 | 670 | degraded in a dose-dependent manner | little change | 400 |
| Cc1cc(N2CCCCC2)cc(C)c1-c1csc(NC(=O)c2ccncc2)n1 [INH154, N-(4-(2,6-Dimethyl-4-(piperidin-1-yl)phenyl)thiazol-2-yl)isonicotinamide] | 40 | Neither INH41 nor INH154 had significant growth inhibitory effects | 110 | Nek2 does not interact |  |  | degraded in a dose-dependent manner | little change | 140 |
